Key:
[1] = test system: Mouse macrophage cell line RAW 264.7; test: MTT assay, RAW 264.7 cell viability; assay type: cell-based; settings: HMP 6.25 μM-25 μM, 48 hrs
Method: MTT is a pale yellow substrate that is reduced by living cells to yield a dark blue formazan product. […] Mouse macrophage cell line RAW 264.7 were cultured in 96 well flat bottom plate at concentration of 0.25 million/ml and after 12 hrs of preconditioning, various concentrations of diarylheptanoid (HMP) was added and further cultured for 48 hrs. Thereafter, culture medium was aspirated and 100 μl of MTT dye (1 mg/ml in PBS) was added and further incubated for 4 hrs at 37° C. The formazan crystals made due to dye reduction by viable cells were dissolved using acidified isopropanol (0.1 N HCl). Index of cell viability was calculated by measuring the optical density of color produced by MTT dye reduction at 570 nm.

iNOS protein expression = test: Western blotting of iNOS protein expression in RAW 264.7 cells; assay type: cell-based, mouse; settings: HMP 12.5 and 25 μM + LPS (0.5 μg/ml), RAW 264.7, 18 hrs
Method: FIG. 3. Inhibition of LPS induced iNOS and COX-2 protein expression by HMP. RAW 264.7 cells were treated with various concentrations of HMP and/or LPS (0.5 μg/ml) for 18 h. Total-cell lysate (40 μg) was resolved in 8-10% SDS-PAGE then transferred to PVDF membrane and detected with specific antibodies as described in Section 6. This experiment was repeated 4 times with similar observations. Lane-1, Control (without any treatment); 2, LPS (0.5 μg/ml); 3, LPS and HMP 25 μM; 4, LPS and HMP-12.5 μM.
At indicated time points, cells were rapidly washed with ice-cold PBS and solubilized in cold lysis buffer containing 10 mM Tris-base, 5 mM EDTA, 50 mM NaCl, 1% Triton X-100, 5 mM phenylmethylsulfonyl fluoride (PMSF), 2 mM sodium orthovanadate, 10 μg/ml leupeptin, 25 μg/ml aprotinin, 1 mM sodium pyrophosphate, and 20% glycerol. […]
Equal amount of protein (40 μg) from each sample was loaded on SDS-polyacrylamide electrophoresis gel (8 and 10% separating gels for iNOS and p42/44^MAPK, respectively) and resolved for 1.5 h at 120 V in buffer containing 95 mM Tris-HCl, 960 mM glycine, and 0.5% SDS. […] Specific bands were detected by enhanced chemiluminescence's detection system (Amersham-Pharmacia biotech, NJ, USA) and the membrane was exposed to X-ray film. […]

[2] = test system: NF-κB DNA binding activity; test: Electrophoresis mobility shift assay (EMSA) of NF-κB DNA binding in RAW 264.7 nuclear extracts; assay type: cell-based, mouse; settings: RAW 264.7, 2 hrs
Method: FIG. 6A and 6B. Inhibition of LPS induced NF-κB activation by HMP. 6A: Nuclear protein lysates of RAW 264.7 cells were prepared after 2 hrs of treatment with LPS (0.5 μg/ml) either alone or with different concentration of HMP. Six μg of nuclear protein was used in DNA binding assay and the total binding reaction was resolved in 5% nondenaturing polyacrylamide gel. The retarded bands are indicated with arrow. Data represent one of three experiments performed separately with similar results. Lane 1, control; 2, LPS (0.5 μg/ml); 3, LPS+HMP (25 μM); 4, HMP (12.5 μM). NS, non specific. 6B: Plot of integrated signal density for each lane in FIG. 6A.
RAW 264.7 cells were treated with either LPS (0.5 μg/ml) alone or with various concentration of HMP for 2 hrs. Thereafter, nuclear extracts were prepared using a modified method (Lahti et al., 2000 294:1188-1194). Briefly, cells were washed once with PBS (pH 7.2) and were suspended in hypotonic buffer A [10 mM HEPES (pH 7.6), 10 mM KCl, 0.1 mM EDTA, 1 mM DTT, 0.5 mM PMSF] for 10 min on ice, and vortexed for 10 sec. Nuclei were pelleted by centrifugation at 12,000 g for 5 minutes. […] Mobility shift of DNA due to binding of NF-κB complex was detected by Phosphor Imager-445 SI (Molecular Dynamics, Amarsham-Pharmacia, NJ, USA).

Structure (SMILES): COc1cc(CC/C=C/C(=O)CCc2ccccc2)ccc1O [AO-4, 7-(4″-hydroxy-3″-methoxyphenyl)-1-phenyl-hept-4-en-3-one]
- cytotoxic effect on RAW 264.7 cells (cell viability, MTT) [1]: almost no cytotoxic effect
- LPS induced iNOS protein expression (Western blot, in words) (iNOS protein expression): markedly inhibited
- LPS induced NF-κB DNA binding activity (EMSA, in words) ([2]; HMP 25 μM + LPS (0.5 μg/ml)): marked inhibition
- relative levels of NF-κB DNA binding activity (EMSA, in words) ([2]; HMP 12.5 and 25 μM + LPS (0.5 μg/ml)): less in comparison to LPS alone

Source: patent US20050215635A1, “Diarylheptanoid compounds and uses thereof” (priority 2004, published 2005)
